From paper PMC5421814, “A Sequence in the loop domain of hepatitis C virus E2 protein identified in silico as crucial for the selective binding to human CD81” (PLoS ONE, 2017)
Read-outs that look alike come from different tables or passages of the source. Residues, ends and D or L forms follow the SMILES beside them.

T1: p_H-CD81 (human)
T1 construct: human CD81, head domain of the large extracellular loop, residues 167-188; Immobilised on a CM-5 chip by amine coupling; also called human CD81 peptide; receptor peptide from the head domain region of human CD81; source: synthetic peptide, bought: GeneMark (GMbiolab Co., Ltd., Taiwan)
T1 peptide: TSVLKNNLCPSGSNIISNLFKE

T2: p_R-CD81 (rat)
T2 construct: rat CD81, head domain of the large extracellular loop, residues 167-188; Immobilised on a CM-5 chip by amine coupling; also called rat CD81 peptide; receptor peptide from the head domain region of rat CD81; source: synthetic peptide, bought: GeneMark (GMbiolab Co., Ltd., Taiwan)
T2 peptide: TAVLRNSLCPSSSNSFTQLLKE


Key:
[1] = target: T3, p_H-CD81 (human CD81 peptide) (Homo sapiens, UniProt P60033); assay: SPR binding to immobilized human CD81 peptide; conditions: for SPR response / binding (in words): various concentrations over immobilized human CD81 peptide; for Kd: Biacore T200, CM-5 chip, p_H-CD81 immobilized (~1000 RU), flow 30 µL/min 2 min, steady-state isotherm, monovalent model, average of three measurements ± standard deviation
T3 construct: ^167[…]^188; purchased GeneMark (GMbiolab Co., Ltd., Taiwan); host or cells: chemical synthesis
Description: (§1) Based on the in silico analysis, peptides were designed for experimental validations of the binding site predictions. Four peptides (p_E2-site1, p_E2-site2, p_H-CD81 and p_R-CD81) designed according to the ZDOCK program and MM/PBSA binding free energy calculations were chemically synthesized and purchased from GeneMark (GMbiolab Co., Ltd., Taiwan). The human and rat CD81 peptides, p_H-CD81 and p_R-CD81, and the HCV E2 peptides, p_E2-site1 and p_E2-site2, were derived from the results of molecular docking between ligand E2 and receptor CD81. Control and HCV E2 mutant peptides were also synthesized (S1 Table) for the SPR and cell based binding measurements to rule out the possible non-specific bindings in the investigations. The HCV E2 mutant peptides were designed based on the mutation studies.
(§2) SPR experiments were conducted to measure the binding efficiency of the designed ligand and receptor peptides. The SPR measurements were performed using a Biacore T200 workstation (GE Healthcare, USA). Peptides p_H-CD81 and p_R-CD81 were diluted to a concentration of 7.5 μM in a 10 mM sodium acetate buffer at pH 4.0 and immobilized onto a CM-5 sensor chip using amine coupling (EDC-NHS) for 5 min at a flow speed of 5 μL/min. Approximately 1000 response units (RU) of p_H-CD81 and p_R-CD81 were immobilized on the chip. In this study, data on the kinetics and affinity of ligand-receptor binding were obtained by flowing several different concentrations of the p_E2-site1 and p_E2-site2 over the chip sequentially at a flow rate of 30 µL/min for 2 min. The response was measured at two time points, 0 and 120 sec, to obtain information on the rate of CD81 peptides association with and dissociation from the p-E2-site1 and p-E2-site2 peptides. Equilibrium binding curves were generated and fitted using a monovalent binding model for each peptide to determine the KD of the binding of E2 peptides (p_E2-site1 and p_E2-site2) with receptor CD81 peptides (p_H-CD81 and p_R-CD81).

[2] = target: T4, p_R-CD81 (rat CD81 peptide) (Rattus norvegicus, UniProt Q62745); assay: SPR binding to immobilized rat CD81 peptide; conditions: for SPR response / binding (in words): various concentrations over immobilized rat CD81 peptide; for Kd: steady-state isotherm
T4 construct: ^167[…]^188; purchased GeneMark (GMbiolab Co., Ltd., Taiwan); host or cells: chemical synthesis
Description: as §1, §2

[3] = target: T1, p_H-CD81; assay: SPR; Biacore T200; p_H-CD81 or p_R-CD81 (about 1000 RU) immobilised on a CM-5 chip by amine coupling; E2 peptides flowed over at several concentrations, 30 µL/min for 2 min; equilibrium binding curves fitted with a monovalent binding model; conditions: both partners purified
[4] = target: T2, p_R-CD81; assay: as above; conditions: both partners purified

Row | Molecule | SPR response / binding (in words) [1] | SPR response / binding (in words) [2] | Kd [1] [µM] | Kd [3] [µM] | Kd [4] [µM] | also measured
1 | CPLNGSTVYGHLRHCLSCSGTMVKF [p_random-25, control (random) peptide] | not significantly increased | not significantly increased |  |  |  | 
2 | SENHLRHCLSCSKCRKEM [p_random-18, control (random) peptide] | not significantly increased | not significantly increased |  |  |  | 
3 | CC[C@H](C)[C@H](N)C(=O)N[C@@H](CC(N)=O)C(=O)N[C@@H](CO)C(=O)N[C@H](C(=O)N[C@@H](C)C(=O)N[C@@H](CC(C)C)C(=O)N[C@@H](CC(N)=O)C(=O)N[C@@H](CS)C(=O)N[C@@H](CC(N)=O)C(=O)N[C@@H](CCC(=O)O)C(=O)N[C@@H](CO)C(=O)N[C@@H](CC(C)C)C(=O)N[C@@H](CC(N)=O)C(=O)N[C@H](C(=O)NCC(=O)N[C@@H](Cc1c[nH]c2ccccc12)C(=O)N[C@@H](CC(C)C)C(=O)N[C@@H](C)C(=O)NCC(=O)N[C@@H](CC(C)C)C(=O)N[C@@H](Cc1ccccc1)C(=O)N[C@@H](Cc1ccc(O)cc1)C(=O)N[C@@H](CCC(N)=O)C(=O)O)[C@@H](C)O)[C@@H](C)O [p_E2-site1] (H-INSTALNCNESLNTGWLAGLFYQ-OH) |  |  | 7.96 ± 1.7 |  |  | Kd ([2]; Biacore T200, CM-5 chip, p_R-CD81 immobilized (~1000 RU), flow 30 µL/min 2 min, monovalent model, average of three measurements ± standard deviation, read-out: KD): 13.8 ± 2.46 µM
4 | CC(C)[C@H](NC(=O)[C@H](CC(=O)O)NC(=O)[C@@H](NC(=O)[C@H](CC(=O)O)NC(=O)[C@H](CC(N)=O)NC(=O)[C@H](C)NC(=O)CNC(=O)[C@H](Cc1c[nH]c2ccccc12)NC(=O)[C@H](CO)NC(=O)[C@H](Cc1ccc(O)cc1)NC(=O)[C@@H](NC(=O)[C@@H]1CCCN1C(=O)[C@H](C)NC(=O)CNC(=O)[C@H](CO)NC(=O)[C@@H](N)CCCNC(=N)N)[C@@H](C)O)[C@@H](C)O)C(=O)N[C@@H](Cc1ccccc1)C(=O)O [p_E2-site2] (H-RSGAPTYSWGANDTDVF-OH) |  |  | 1.07 ± 0.09 |  |  | Kd ([2]; p_R-CD81 immobilized, value printed in Fig 6 plot, read-out: KD (printed in the picture, Fig 6)): 6.4 µM
5 | RSGAPTYSWGANDTDVF (hepatitis C virus envelope glycoprotein E2, residues 521-537 of the polyprotein; also called E2-site2 peptide; E2-s2; source: synthetic peptide, bought: GeneMark (GMbiolab Co., Ltd., Taiwan)) [p_E2-site2] |  |  |  | 1.07 | 6.38 | 
6 | INSTALNCNESLNTGWLAGLFYQ (hepatitis C virus envelope glycoprotein E2, residues 422-444 of the polyprotein; also called E2-site1 peptide; E2-s1; source: synthetic peptide, bought: GeneMark (GMbiolab Co., Ltd., Taiwan)) [p_E2-site1] |  |  |  | 7.96 | 13.8 | 
